Earlier results as cited in US11235084B2, “Embolic microspheres” (Varian Medical Systems, Inc., priority 2017, dated 2022).

| reported pKa values at 25° C. | Structure (SMILES) |
| --- | --- |
| 9.1 | CC(C)(CO)NCC(O)CS(=O)(=O)O (centres unmarked) [AMPSO, N-(1,1-dimethyl-2-hydroxyethyl)-3-amino-2-hydroxypropanesulfonic acid] |
| 10.5 | O=S(=O)(O)CCCNC1CCCCC1 [CAPS, 3-(cyclohexylamino)-1-propanesulfonic acid] |
| 9.4 | O=S(=O)(O)CCNC1CCCCC1 [CHES, 2-(cyclohexylamino)-1-ethanesulfonic acid] |
| 7.8 | CCN1CCOCC1 [N-ethylmorpholine] |
| 8.3 | NCC(=O)NCC(=O)O [glycylglycine] |
